From US8772243B2, “Methods for predicting the response to anti-cancer treatment with an agonist of TLR7 or an agonist of TLR8” (Inserm (Institut National de la Sante et de la Recherche …, priority 2008, dated 2014)

Experiments:
Format in all cases: cell-based, human
A549 cells [1] = test: Tumor cell proliferation assay (Alamar blue reduction); details: 10 μg/ml, ten days
Experimental: (§1) FIG. 4 TLR7 and 8 induce survival of lung tumor cells. (A) A549 cells were unstimulated, stimulated with loxoribine (10 μg/ml), Poly U (10 μg/ml), or Gardiquimod(10μg/ml) and incubated with Alamar blue for 10 days. Reduction of Alamar blue was then determined by spectrophotometry at 570 and 600 nm. The percentage of reduced Alamar blue was calculated as described by the manufacturer. A549 cells were unstimulated or stimulated with loxoribine, Poly U, Gardiquimod, etoposide, or cycloheximide for 24 h. (B) The percentage of dead cells was determined by Trypan blue exclusion. (C) The DNA content was measured by IP staining after RNAse A treatment. The percentages indicate the proportion of subdiploid (G0/G1) and […]. Data represent mean values±SD from 3 independent experiments (*p<0.05; ** p<0.01, Student test). (D) A549 cells were cultured for 6 h in the presence of loxoribine, Poly U, or Gardiquimod, and the expression of Bcl-2 was assayed using Taq Man Low Density Array technology. The ΔCT values for Bcl-2 expression were calculated by subtraction of the CT value obtained for the 18S housekeeping gene. The ΔΔCT values were obtained by subtraction of ΔCT values for unstimulated cells from those obtained for stimulated cells. The fold increase (arbitrary unit) was obtained by 2^−ΔΔCT.
Human lung cancer cell lines were seeded in 96-well plates (800 cells per well) and left unstimulated or were stimulated with loxoribine, Poly U, or Gardiquimod. The proliferation assay was performed with Alamar blue (AbD Serotec, Cergy Pontoise, France) according to the manufacturer's instructions. Briefly, cells were seeded and stimulated with TLR ligands in 100 μl of medium, and 10 μl of Alamar Blue was added. The optical density in each well was determined at 540 nm and 570 nm after 10 days of culture, and the percentage of reduced Alamar blue was determined. The percentage of reduced Alamar blue in unstimulated cells was determined as 100%, and the percentages of the stimulated cells were determined relative to this value.

A549 cells [2] = test: Cell cycle analysis (propidium iodide staining); details: PI staining
Experimental: as §1
A549 cells were cultured in the presence of loxoribine, Poly U, Gardiquimod, etoposide, or cycloheximide. After 48 h, the cells were harvested, washed in cold PBS, and fixed with 2 ml of 70% cold ethanol in PBS for 2 h at 4° C. After centrifugation, the supernatant was removed and the pellet was rinsed with 0.5% PBS Tween. It was then incubated with […] of RNAse A and 50 μg of propidium iodide in PBS. Propidium iodide staining was determined with a FACScalibur cytometer.

[3] = tested on: Bcl-2 expression in A549 cells; test: Bcl-2 expression, Taq Man Low Density Array, A549; details: 6 h, RT-PCR
Experimental: as §1, with “The fold increase (arbitrary unit) was obtained by 2^−ΔΔCT.” left out
Total RNA was extracted from A549 or SK-MES cells stimulated with loxoribine, Poly U, or Gardiquimod for 6 h or from purified human lung cancer cells using the RNeasy isolation-kit RNA (Qiagen, Courtaboeuf, France). The integrity and the quantity of the RNA were evaluated with a bioanalyzer-2100 (Agilent Technologies). All samples were assessed for gene expression analysis using the Taq Man Low-Density Array angiogenesis and immune panel (Applied Biosystem). […] Quantitative real-time TaqMan-PCR was performed using Low-Density-Arrays and the 7900 robotic real-time PCR-system (Applied-Biosystems). […] Data were analyzed using the SDS Software v2.2 (Applied-Biosystems). The ΔCT values were calculated for each gene by subtraction of the CT value of the 18S housekeeping gene from the CT of the gene of interest. […]

A549 and SK-MES cells [4] = test: Chemoresistance assay (Trypan blue and Alamar blue); details: Alamar blue reduction
Experimental: FIG. 5 TLR7 and 8 induce chemoresistance of lung tumor cells. A549 (A-C) or SK-MES cells (D-F) were cultured with or without loxoribine or Poly U for 48 h, and then left untreated or were treated with cycloheximide, cisplatine, carboplatine, doxorubicine, or Navelbine. After 36 h, the percentage of dead cells was determined by Trypan blue exclusion (A, D) and cell viability was analyzed by the reduction of Alamar blue (B, C, E and F). Data represent mean values±SD from 3 independent experiments (*p<0.05; **p<0.01, ***p<0.001, Student test).
A549 and SK-MES cells were seeded in 96-well plates (1000 cells per well) and left unstimulated or were stimulated with loxoribine, Poly U, or Gardiquimod for 48 h. Cisplatine, carboplatine, doxorubicine, Navelbine, or cycloheximide was then added for an additional 36 h. The optical density in each well was determined 24 h after the addition of Alamar blue at 540 nm and 570 nm. Alternatively, viable and dead cells were counted using Trypan blue.

A549 and SK-MES cells [5] = test: Transcriptomic analysis of 182 genes (Taq Man Low Density Array); details: 6 h stimulation; versus unstimulated cells
Experimental: FIG. 6 TLR7 and 8 induce regulation of gene transcription. A549 or SK-MES cells were cultured for 6 h in the presence of loxoribine, Poly U, or Gardiquimod. Total RNA was extracted and analyzed for the expression of 182 genes using Taq Man Low Density Array technology. All genes with a value greater than 35 (CT) were excluded from the analysis. The ΔCT values for the expression of all genes were calculated by subtraction of the CT value of the 18S housekeeping gene. The ΔΔCT values were obtained by subtraction of the ΔCT values for unstimulated cells from those obtained for TLR7- or 8-stimulated cells. The fold increase (arbitrary unit) was obtained by 2^−ΔΔCT. Values were then clustered using the Genesis Software.
Total RNA was extracted from A549 or SK-MES cells stimulated with loxoribine, Poly U, or Gardiquimod for 6 h or from purified human lung cancer cells using the RNeasy isolation-kit RNA (Qiagen, Courtaboeuf, France). The integrity and the quantity of the RNA were evaluated with a bioanalyzer-2100 (Agilent Technologies). All samples were assessed for gene expression analysis using the Taq Man Low-Density Array angiogenesis and immune panel (Applied Biosystem). The RT-PCR experiments were carried-out according to the manufacturer's instructions (Applied-Biosystems). Quantitative real-time TaqMan-PCR was performed using Low-Density-Arrays and the 7900 robotic real-time PCR-system (Applied-Biosystems). The 18S primers and probes were used as internal controls. Data were analyzed using the SDS Software v2.2 (Applied-Biosystems). The ΔCT values were calculated for each gene by subtraction of the CT value of the 18S housekeeping gene from the CT of the gene of interest. The ΔΔCT values were obtained by subtraction of the ΔCT values for unstimulated cells from the […]. The fold increase (arbitrary unit) was obtained by 2^−ΔΔCT.

C=CCn1c(=O)n([C@@H]2O[C@H](CO)[C@@H](O)[C@H]2O)c2nc(N)[nH]c(=O)c21 [loxoribine, 7-allyl-7,8-dihydro-8-oxo-guanosine]
increase in reduction of Alamar blue versus unstimulated cells (A549 cells [1]): 20%
proportion of cells in G0/G1 or G2/M phases versus unstimulated cells (A549 cells [2]): did not observe any significant differences
Bcl-2 expression compared to untreated cells [3]: increased expression of Bcl-2
cell viability after chemotherapy when stimulated prior to induction of apoptosis (A549 and SK-MES cells [4]): significantly higher viability
genes down-regulated in both SK-MES and A549 cells (A549 and SK-MES cells [5]): Prolactin (PRL), CD80, Fibronectin-1 (FN-1), A Disintegrin And Metalloproteinase with ThromboSpondin motif 1 (ADAMTS1), and Serpin Peptidase Inhibitor Clade C1 (SERPINC1)
genes up-regulated in A549 cells, but down-regulated in SK-MES cells (A549 and SK-MES cells [5]): Angiopoietin like 3 (ANGPTL3), Serpin Peptidase Inhibitor Clade F1 (SERPINF1), and Angiopoietin 1 (ANGPT1)
genes up-regulated in SK-MES, but down-regulated in A549 cells (A549 and SK-MES cells [5]): ANGPTL1, Platelet Factor 4 (PF4), and fms related tyrosine kinase 4 (FLT4)
genes up-regulated in both SK-MES and A549 cells (A549 and SK-MES cells [5]): Bcl-2, CCR4, and Vasohibin-1 (VASH-1)

Poly U
increase in reduction of Alamar blue versus unstimulated cells (A549 cells [1]): 20%
proportion of cells in G0/G1 or G2/M phases versus unstimulated cells (A549 cells [2]): did not observe any significant differences
Bcl-2 expression compared to untreated cells [3]: increased expression of Bcl-2
cell viability after chemotherapy when stimulated prior to induction of apoptosis (A549 and SK-MES cells [4]): significantly higher viability
genes down-regulated in both SK-MES and A549 cells (A549 and SK-MES cells [5]): Prolactin (PRL), CD80, Fibronectin-1 (FN-1), A Disintegrin And Metalloproteinase with ThromboSpondin motif 1 (ADAMTS1), and Serpin Peptidase Inhibitor Clade C1 (SERPINC1)
genes up-regulated in A549 cells, but down-regulated in SK-MES cells (A549 and SK-MES cells [5]): Angiopoietin like 3 (ANGPTL3), Serpin Peptidase Inhibitor Clade F1 (SERPINF1), and Angiopoietin 1 (ANGPT1)
genes up-regulated in SK-MES, but down-regulated in A549 cells (A549 and SK-MES cells [5]): ANGPTL1, Platelet Factor 4 (PF4), and fms related tyrosine kinase 4 (FLT4)
genes up-regulated in both SK-MES and A549 cells (A549 and SK-MES cells [5]): Bcl-2, CCR4, and Vasohibin-1 (VASH-1)
